Tests used:
[1] = tested on: wheat rust fungus (Puccinia recondita); assay: Test Example 4: foliar spray of flowable formulations on potted wheat, wheat rust lesion area; format: in vivo; details: wheat (cultivar. Shirogane), single use
Protocol: Five (5) parts of the present compound 1-1, 35 parts of a mixture of white carbon and ammonium polyoxyethylene alkyl ether sulfate (the weight ratio of 1:1) and […] of water were mixed, and the mixture was then finely-ground by a wet grinding method to obtain a flowable formulation comprising the present compound 1-1. Separately, the flowable formulation comprising the present compound 2-1 was prepared according to the above-mentioned similar method except that the present compound 2-1 was used instead of the present compound 1-1 to form a flowable formulation comprising the present compound 2-1.
Each of the above-mentioned respective flowable formulations, and the flowable formulation comprising the present compound 1-1 and the present compound 2-1 that was prepared according to the above-mentioned Formulation Example 3 was diluted with water such that each concentration of the respective compounds in the dilution solutions was adjusted to that indicated in Table 6, to prepare the dilution solutions, respectively.
A plastic pot was filled with soil, and thereto wheat (cultivar. Shirogane) was seeded, and the plants were grown in a greenhouse for ten days. […]
From each of the lesion area of the treated group and the untreated group, respectively, the efficacy of the treated group was calculated by the below-mentioned Equation 2. […]

wheat leaf blight fungus = assay: Test Example 3: growth of wheat leaf blight fungus in YBG medium, microtiter plate, absorbance at 550 nm; format: cell-based, Mycosphaerella graminicola; details: single use, 18° C., six days
Protocol: The present compound 1-1 or the present compound 2-1 was dissolved into dimethyl sulfoxide such that each concentration of the present compound 1-1 or the present compound 2-1 was adjusted to one hundred fifty times as much as the concentration indicated in the below-mentioned Table 5. The resultant agent solution was dispensed into a microtiter plate (with 96 wells) in 1 μl portion thereof per well. One hundred forty nine (149) μl of YBG medium. (which was prepared by dissolving 10 g of yeast extract, 10 g of Bacto Peptone, and 20 mL of glycerol into 1 L of water, followed by sterilizing the medium) was dispensed into the wells to which the agent solution(s) was/were dispensed. The plate was cultivated at 18° C. for six days, thereby allowing wheat leaf blight fungus to undergo proliferation, and the absorbance at 550 nm of each well of the micro titer plate was then measured to examine a degree of growth of the wheat leaf blight fungus (hereinafter referred to as “treated group”).
Whereas, wheat leaf blight fungus was proliferated similarly to the case of the treated group except that dimethyl sulfoxide was used instead of the agent solution, and the degree of the growth was examined (hereinafter referred to as “untreated group”). The efficacy was calculated from the respective obtained degree of growth by the below-mentioned “Equation 1”.
Efficacy (%)=100×(X−Y)/X Equation 1 […]

`Cc1nnc(Cl)c(-c2c(F)cccc2F)c1-c1ccccc1` [Present compound 1-1] was tested, and the “Efficacy (%)” value ([1]; concentration 0.0001 ppm) was 20%, the “Efficacy (%)” value ([1]; concentration 0.01 ppm) was 31% and the “Efficacy (%)” value (wheat leaf blight fungus; concentration in medium 0.005 ppm) was 4%. For the same compound, the “Efficacy (%)” value (wheat leaf blight fungus; concentration in medium 0.1 ppm) was 75%.

From patent US20190000081A1, “PLANT DISEASE CONTROL COMPOSITION AND PLANT DISEASE CONTROL METHOD” (SUMITOMO CHEMICAL COMPANY, LIMITED, priority 2015, published 2019)
